Assay results as given in patent publication US9840532B2, “5′-substituted nucleoside compounds” (Eli Lilly and Company, priority 2015, dated 2017).

Columns and labels:
[1] = system: PRMT5-dependent alternative splicing of MDM4 in A375 melanoma cells; experiment: MDM4 Exon5/6 qPCR Assay in A375 Tumor Cells; type: cell-based; conditions: Homo sapiens, A-375, 72 hr, Mean ± SEM
Method: Culture A375 tumor cells (ATCC), a melanoma cancer cell line, to 70%-90% confluence in T150 flasks with the growth medium (DMEM; HYCLONE™ #SH30022 with 10% FBS; GIBCO® 10082-147 or equivalent). Treat the cells with standard trypsin/EDTA treatment for 3 min and aspirate and wash with PBS to release the adherent cells from the culture flask. Seed the cells into a 96 well plate (Costar 3596) at 5000/well in growth medium (90 μL). Incubate the plate overnight at 37° C. and 5% CO2 and treat the cells with test compound at serial dilutions ([…], final DMSO addition of 0.2% yield) for 72 hr. Measure activity relative to maximum (2.0 μM of Example 2 and minimum (0.2% DMSO) controls.
On Day 5 after incubation, remove the medium from the culture plates and wash the cells twice with cold PBS (150 μL/well). Prepare Lysis Working Reagent from the TAQMAN® Gene Expression Cells-to-CT Kit (INVITROGEN™ cat. # AM1729) by dilution of DNAse 1 into Lysis Solution at 1/100. Add Lysis Working Reagent (50 μL/well) to the cell plates, mix well, and incubate at room temperature for 5 min Add kit stop solution (5 μL) to each well, mix the wells, and incubate for 2 min at room temperature. Prepare Reverse Transcriptase Master Mix in the following volume ratios; RT buffer: Nuclease-free water: RT Enzyme at 62.5:31.25:6.25. Add RT mix (48 μL/well) to each well of a 96-well NUNC™ plate (THERMO SCIENTIFIC™ #260860). Add RT mix (20 μL) and each cell lysate sample (5 μL) into a 384 PCR plate (Clear Optical Reaction Plate, cat. #4309849, APPLIED BIOSYSTEMS®) quadrant 1 and add a second addition of RT Mix and cell lysate to quadrant 3. For the RT reaction, seal the plates and then place them in a thermal cycler set at 37° C. for 60 min; 95° C. for 5 min; stop at 4° C. For qPCR, prepare MDM4 exon 5 primers (Life Technologies Hs00967240-ml) and exon 6 primers (Life Technologies Hs00967242-ml) separately in the following volume ratios of RT mix: H2O: exon probe at 10:6:1. Add Exon 5 (17 μL) to odd columns of a 384 PCR plate and add exon 6 (17 μL) to the even columns. Add cDNA (3 μL, from the RT plate) by quadrant stamping to each well of the qPCR plate containing the 17 μL exon primer solution. In this manner, perform qPCR for both exons on cDNAs from a single RT reaction on an individual cell lysate. Seal the plates, spin, and place on a real-time PCR instrument (Life Technologies ViiA7 Real-Time PCR). […]
Retrieve CT data from the real-time PCR reader and perform the following calculations, where “CPD” is the value from compound-treated samples, and “DMSO” is the minimum control sample, using an Excel template: (Exon 6 CT CPD−Exon 6 CT DMSO)−(Exon 5 CT CPD−Exon 5 CT DMSO)=ΔCT 2^(−ΔCT)=Fold Change […]

Molt 4 cells = experiment: Xenograft tumor model, acute lymphoblastic leukemia (Molt 4); type: in vivo, mouse; conditions: 60 mg/kg BID for 30 days, oral gavage
Method: The purpose of this assay is to measure in a mouse model of cancer the reduction in tumor volume in response to test compound administration.
Grow A375 (melanoma) cells in DMEM/High glucose (HYCLONE™ cat. # SH30022) with 10% HI FBS (GIBCO® cat. #10082-147). Grow Will-2 (DLBCL) cells in RPMI 1640 with L-glutamine and 20% heat inactivated FBS. Grow Namalwa (Burkitt's lymphoma) cells (ATCC) in RPMI 1640 media supplemented with L-glutamine, 25 mM HEPES (GIBCO® 22400-089), 1 mM sodium pyruvate and 7.5% FBS. Grow Molt 4 cells in RPMI 1640 with L-glutamine, 25 mM HEPES [GIBCO 22400-089], 1 mM sodium pyruvate, and 10% FBS. Harvest cells and inject subcutaneously onto the rear flank of nude mice (A375: 5×10^6 cells/animal, mixed 1:1 with MATRIGEL®; Will-2; 1×10^7 cells/animal; Namalwa: 2×10^6 cells/animal; Molt 4: : 5×10^6 cells/animal, mixed 1:1 with MATRIGEL®). When tumors are established (approximately 200 mm^3, 7-21 days after implant), randomize animals, and group them into control and test groups. Formulate the test compound in 1% HEC/0.25% TWEEN®-80/0.05% Antifoam. Administer test compound and vehicles by oral gavage. Determine tumor response by tumor volume measurement (caliper) performed twice a week during the course of treatment and report as the percent inhibition of tumor volume versus the vehicle control group.

PRMT5/MEP50 complex = molecular target: T1, PRMT5/MEP50 complex (Homo sapiens, UniProt O14744); experiment: PRMT5/MEP50 SPA Assay; type: biochemical; conditions: Mean ± SEM
T1 construct: FLAG; made in house; host or cells: baculovirus/Sf9 insect cells
From the text: The purpose of this assay is to measure the ability of a test compound to inhibit the enzyme activity of PRMT5 in vitro by inhibiting the catalytic activity of PRMT5/MEP50 complex, indicated by the transfer of radiolabeled methyl-^3H to a substrate peptide derived from the N-terminal sequence of the human histone H4.
Express the PRMT5/MEP50 enzyme complex using a baculovirus/Sf9 system and purify using anti-FLAG affinity chromatography, (essentially as described in preparations by Stephen Antonysamy, Zahid Bonday, Robert M. Campbell, Brandon Doyle, Zhanna Druzina, Tarun Gheyi, Bomie Han, Louis N. Jungheim, Yuewei Qian, Charles Rauch, Marijane Russell, J. Michael Sauder, Stephen R. Wasserman, Kenneth Weichert, Francis S. Willard, Aiping Zhang, and Spencer Emtage; Crystal structure of the human PRMT5:MEP50 complex, Proceedings of the National Academy of Sciences, 2012, Volume 109, pages 17960-17965.) Dilute purified enzyme to a working stock of 6.67 nM in assay buffer (50 mM TRIZMA® preset pH ˜8.5, 1 mM DTT, 0.005% TWEEN® 80 0.01% HSA).
Add enzyme (15 μL/well) to a 384-well assay plate (CORNING® cat. #3706). Add test compounds from a 10 mM DMSO stock solution to the plate as serial dilutions in assay buffer to achieve a final test concentrations ranging from 50.0 μM to 25 nM. Create a reaction mix containing 1 μM Histone H4 biotinylated peptide substrate, H-[…]-biotin (SEQ ID NO: 1), prepared by FastMoc chemistry with an ABI 431 peptide, and 4 μM ^3H-SAM; 15 Ci/mmol, 0.366 mCi/mL, 37 μM, PERKIN-ELMER® cat. # NET155000MC) in assay buffer. To each plate well, add 5 μL of the peptide/^3H-SAM reaction mix to yield final assay conditions of 5 nM enzyme, 1 ^3H-SAM, 250 nM peptide and 50 μM maximum test compound concentration with 0.5% DMSO, at a final volume of 20 μL. Incubate the assay for 2 hr at room temperature. Stop the reaction with the addition of guanidine HCl (5 M, 20 μL, Sigma cat. # G3272).
Suspend strepavidin YSI SPA scintillation beads (PERKIN-ELMER®, #RPNQ0012) at 1 mg/mL in pH ˜8.5 Tris buffer containing 5 M guanidine HCl. To each well, add 20 μL of this bead suspension, agitate the resulting mixtures, and incubate for 1 hr at room temperature prior to measuring their radioactivity, using a microplate liquid scintillation counter as an indication of the formation of methylated peptide product.
Generate raw data from the radioactivity measurement as counts per min (CPM). Employ an uninhibited control (DMSO) and maximum inhibited control (250 μM dehydrosinefungin, (isolated essentially as described in Berry, D. R. & Abbott, B. J. Incorporation of carbon-14-labeled compounds into sinefungin (A9145), a nucleoside antifungal antibiotic. J. Antibiot. 1978 (31) 185-191 and references cited therein)). […]

GDM-1 cells = experiment: Combination with BCL2 inhibitor ABT-199 in AML cell lines, 4-day cell proliferation assay; type: cell-based; conditions: GDM-1, treatment duration 4 Days; single agent or combination; read-out: Absolute IC50 (cell proliferation)
Method: (§1) On day 1, plate GDM-1 [ATCC®, maintained throughout in GDM-1 assay medium: RPMI-1640 medium/20% heat-inactivated FBS (GIBCO®)] and EOL-1 cells [ATCC®, maintained throughout in EOL-1 assay medium: RPMI-1640 medium/10% heat-inactivated FBS (GIBCO®)] at 4000 and 10000 cells/well (100 μL/well) respectively, in a 96-well assay plate (BD FALCON® 35-3219). Incubate the plates in a 37° C. incubator (5% CO2) for 18-24 hr. On day 2, prepare 2.0% DMSO with assay medium (as indicated above or RPMI-1640/20% heat-inactivated FBS and RPMI-1640/10% FBS for GDM-1 and EOL-1, respectively) and add 100 μL to columns 3-12 in a preparation plate. Prepare test compounds ABT-199 at 10 μM in 2% DMSO and PRMT5 inhibitor Example 1 at 25 μM in 2% DMSO and dispense into wells A2 and B2, respectively, followed by serial dilution (1:3, 10 points) to wells A11 and B11, respectively. For combinational treatment, serially dilute test compound examples at 1:2 in assay medium (as indicated above or RPMI-1640/20% heat-inactivated FBS and RPMI-1640/10% FBS for GDM-1 and EOL-1, respectively) in wells C2-C11 (0.1 μM) to H2-H11, then serially dilute test compound ABT-199 1:3 from C2-H2 (1.0 μM) to C11-H11. […] Incubate plates for 10-15 min at room temperature before reading. Measure luminescence using the PERKIN-ELMER® ENVISION® Multi-Label Reader. […]

EOL-1 cells = experiment: Combination with BCL2 inhibitor ABT-199 in AML cell lines, 7-day cell proliferation assay; type: cell-based; conditions: EOL-1, treatment duration 7 Days; single agent or combination; read-out: Absolute IC50 (cell proliferation)
Method: as §1

T1 sequence (O14744 whole entry): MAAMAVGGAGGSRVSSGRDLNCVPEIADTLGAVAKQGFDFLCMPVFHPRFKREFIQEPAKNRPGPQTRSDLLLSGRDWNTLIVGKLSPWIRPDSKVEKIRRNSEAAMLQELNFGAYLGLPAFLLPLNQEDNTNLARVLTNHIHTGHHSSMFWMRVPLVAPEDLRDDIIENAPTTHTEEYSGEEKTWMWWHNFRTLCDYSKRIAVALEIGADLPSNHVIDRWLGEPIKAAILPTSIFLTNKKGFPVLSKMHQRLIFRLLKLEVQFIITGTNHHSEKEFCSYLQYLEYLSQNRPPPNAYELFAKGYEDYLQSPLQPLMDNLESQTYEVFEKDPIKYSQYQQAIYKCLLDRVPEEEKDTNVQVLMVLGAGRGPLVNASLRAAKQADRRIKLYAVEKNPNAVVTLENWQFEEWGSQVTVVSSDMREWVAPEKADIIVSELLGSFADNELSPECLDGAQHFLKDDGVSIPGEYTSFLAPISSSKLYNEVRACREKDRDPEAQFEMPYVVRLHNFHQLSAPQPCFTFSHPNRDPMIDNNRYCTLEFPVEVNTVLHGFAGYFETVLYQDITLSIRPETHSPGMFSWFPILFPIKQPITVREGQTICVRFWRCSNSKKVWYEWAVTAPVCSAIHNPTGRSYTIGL
T1 sequence (Q9BQA1 whole entry partner): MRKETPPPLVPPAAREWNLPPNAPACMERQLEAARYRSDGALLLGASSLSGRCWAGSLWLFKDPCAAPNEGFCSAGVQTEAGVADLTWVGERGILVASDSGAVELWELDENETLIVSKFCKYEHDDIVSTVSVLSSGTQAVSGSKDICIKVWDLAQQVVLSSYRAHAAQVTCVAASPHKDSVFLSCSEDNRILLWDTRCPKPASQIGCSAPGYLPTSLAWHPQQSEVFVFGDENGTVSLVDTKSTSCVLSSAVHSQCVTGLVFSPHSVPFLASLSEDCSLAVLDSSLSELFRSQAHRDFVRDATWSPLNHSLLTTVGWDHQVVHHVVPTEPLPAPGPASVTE

Compound | EC50 [1] [nM] | percent inhibition of tumor volume versus vehicle (Molt 4 cells) [%] | IC50 (PRMT5/MEP50 complex) [nM] | IC50 (GDM-1 cells) [nM] | IC50 (EOL-1 cells) [nM]
Nc1ncnc2c1ccn2[C@@H]1O[C@H]([C@H](O)c2ccc(Cl)c(OC3CC3)c2)[C@@H](O)[C@H]1O [Example 4, (2R,3R,4S,5R)-2-(4-aminopyrrolo[2,3-d]pyrimidin-7-yl)-5-[(R)-[4-chloro-3-(cyclopropoxy)phenyl]-hydroxy-methyl]tetrahydrofuran-3,4-diol] | 1040 | −75 | 5.2 |  | 
ABT-199 [reference compound] |  |  |  | 7 | 30
